Values belong to the compound of their own block, whether it stands above or below them.
What was measured:
BTK = biological target: T1, BTK (Canis lupus familiaris, UniProt A0A8I3P3Z9); assay: BTK occupancy in blood in the dog pemphigus foliaceus study; assay type: in vivo; conditions: oral 500 mg daily, blood taken 24 hours after the first dose, read-out: level of BTK occupancy
T1 construct: from tissue; host or cells: blood of the treated dog

pemphigus foliaceus = assay: Dog pemphigus foliaceus study; assay type: in vivo
[1] = Stability of the free base on drying (thermal stability); assay type: physicochemical; conditions: drying under vacuum, at less than 45° C.
From the text: Isolation of compound (I) as described in PCT Application No. PCT/US2013058614 is less than ideal for large scale synthesis and isolation and therefore handling and formulating of the resulting compound can present challenges. In addition, when isolated as described in PCT Application No. PCT/US2013058614, the isolated compound (I) retains a higher percentage of residual solvent after drying under vacuum at ambient temperature than that allowed under the International Conference on Harmonisation of Technical Requirements for Registration of Pharmaceuticals for Human Use (“ICH”) guidelines (e.g., -ICH limit for class 2 solvents ranges between 50-3880 ppm and for class 3 solvents <5000 ppm).
However, the solids obtained by this method contained high residual solvents (3.9 wt % isopropylacetate and 1.7 wt % heptane).

chronic SLE = conditions: cited from earlier work
[2] = test system: ANCA-associated vasculitis; conditions: cited from earlier work
pemphigus vulgaris = conditions: cited from earlier work

T1 sequence (A0A8I3P3Z9 1-664): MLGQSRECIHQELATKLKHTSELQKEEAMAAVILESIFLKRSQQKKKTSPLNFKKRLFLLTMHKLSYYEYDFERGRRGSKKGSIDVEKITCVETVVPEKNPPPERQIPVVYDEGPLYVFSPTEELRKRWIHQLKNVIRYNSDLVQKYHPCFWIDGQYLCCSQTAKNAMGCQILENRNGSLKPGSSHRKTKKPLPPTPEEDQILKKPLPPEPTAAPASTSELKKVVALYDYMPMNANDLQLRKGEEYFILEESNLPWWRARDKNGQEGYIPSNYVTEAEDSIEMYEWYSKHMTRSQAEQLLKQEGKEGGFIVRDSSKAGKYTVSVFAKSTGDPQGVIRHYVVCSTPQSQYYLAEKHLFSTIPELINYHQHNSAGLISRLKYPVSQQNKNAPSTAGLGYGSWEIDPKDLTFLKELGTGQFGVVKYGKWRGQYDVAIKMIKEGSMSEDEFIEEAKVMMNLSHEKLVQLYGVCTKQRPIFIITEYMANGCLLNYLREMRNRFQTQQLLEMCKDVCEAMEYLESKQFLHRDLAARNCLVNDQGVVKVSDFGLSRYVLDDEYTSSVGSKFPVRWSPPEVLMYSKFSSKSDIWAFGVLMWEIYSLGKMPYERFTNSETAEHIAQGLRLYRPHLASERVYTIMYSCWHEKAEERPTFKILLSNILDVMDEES

receptor occupancy at 500 mg (BTK): ~70%
Compound: CC(C)(C)/C=C(\C#N)C(=O)N1CCC[C@@H](n2nc(-c3ccc(Oc4ccccc4)cc3F)c3c(N)ncnc32)C1 [(R,E)-2-(3-(4-amino-3-(2-fluoro-4-phenoxy-phenyl)-1H-pyrazolo[3,4-d]-pyrimidin-1-yl)piperidine-1-carbonyl)-4,4-dimethylpent-2-enenitrile]
Time to clinical response (improved eating and ambulation) (pemphigus foliaceus; 30 kg Doberman, oral 500 mg daily, monotherapy): within three days | Manifestation of pre-clinical response compared with systemic corticosteroid therapy (pemphigus foliaceus; dog with pemphigus foliaceus, single agent): as rapid and comparable to that observed with systemic corticosteroid therapy | Corticosteroid-like adverse effects (polyuria, polydipsia, polyphagia, weight gain) (pemphigus foliaceus; dog, oral 500 mg daily): No well-known corticosteroid-like adverse effects | Skin lesions by four weeks (pemphigus foliaceus; dog, oral 500 mg daily, four weeks): completely healed | Clinical status at one week follow up visit (pemphigus foliaceus; dog, oral 500 mg daily, one week): improved general health and commencement of pemphigus lesion healing | Clinical status after two weeks of treatment (pemphigus foliaceus; dog, oral 500 mg daily, two weeks): general health of the dog was excellent and skin lesions continued to improve | Corticosteroid-like adverse effects (polyuria, polydipsia, polyphagia, weight gain) (pemphigus foliaceus; dog, oral 500 mg daily, listed as (R,E)-2-(3-(4-amino-3-(2-fluoro-4-phenoxyphenyl)-1H-pyrazolo [3,4-d]-pyrimidin-1))): none of the well-known corticosteroid-like adverse effects

Stability of free base (degradation products during drying) [1]: thermal instability | Stability of free base (degradation products during drying) ([1]; listed as free base form): not very stable
Compound: CC(C)(C=C(C#N)C(=O)N1CCC[C@@H](n2nc(-c3ccc(Oc4ccccc4)cc3F)c3c(N)ncnc32)C1)N1CCN(C2COC2)CC1 [Compound (I), 2-[(3R)-3-[4-amino-3-(2-fluoro-4-phenoxy-phenyl)pyrazolo[3,4-d]pyrimidin-1-yl]piperidine-1-carbonyl]-4-methyl-4-[4-(oxetan-3-yl)piperazin-1-yl]pent-2-enenitrile]

Compound: Belimumab: an anti-Blys antibody
Effect on improvement of chronic SLE (chronic SLE): modest and delayed effect on improvement | Patients able to reduce corticosteroid use to <7.5 mg of prednisone (chronic SLE; week 40-52): ≤ 21% of patients (Benlysta US Product

Compound: Rituximab: anti-CD20 agent
Onset of effect [2]: Rituximab has delayed effect in ANCA- | Onset of effect (pemphigus vulgaris): Rituximab has delayed effect in pemphigus | Time of maximal effect (pemphigus vulgaris): vulgaris with maximal effect at 8-12 weeks
